Columns and labels:
Format in all cases: in vivo
[1] = tested on: TRZAW: Triticum aestivum (soft wheat); experiment: Crop damage in field trials (maximum damage observed in the crop)
Protocol: (§1) The seeds or rhizome pieces of typical harmful plants were planted and grown under natural outdoor conditions. After the harmful plants had emerged, they were treated, as a rule at the 2- to 4-leaf stage, with various dosages of the compositions according to the invention at a water application rate of […] (converted).
(§2) After the treatment (approx. 4-6 weeks after application), the herbidical activity of the active compounds or active compound mixtures was scored visually by comparing the treated plots with the untreated control plots. Damage and development of all above-ground parts of the plants was recorded. Scoring was done on a percentage scale (100% action=all plants dead; 50% action=50% of the plants and green plant parts dead; 0% action=no discernible action=like control plot). The score figures of in each case 4 plots were averaged.
(§3) The dose rates of herbicidal ingredients used in each case are indicated for the respective active ingredient in brackets and refer to the amount of active ingredient per hectare (g/ha).
(§4) The herbicidal effects observed for the herbicide (mixtures) are indicated in % Activity against the respective weed. The % Damage indicated refers to the maximum damage observed in the respective crop.
(§5) The results of the treatments are reflected in the Tables below, and the activity measured for the independent use of the active compounds (A+B)+(C) is stated in brackets. The treatments were carried out using Mesosulfuron-methyl (A1-1) or Mesosulfuron-methyl-sodium (A1-2) as component (A), and Iodosulfuron-methyl (B1-1) or Iodosulfuron-methyl-sodium (B1-2) as component (B). The results of the treatments in these cases were essentially identical.

[2] = tested on: CENCY: Centaurea Cyanus; experiment: Herbicidal action, outdoor/field trials, post-emergence; conditions: crop TRZAW, field trials
Protocol: as §1, §2
(§6) The growth stages of the different weed species are indicated according to the BBCH monograph “Growth stages of mono- and dicotyledonous plants”, 2nd edition, 2001, ed. Uwe Meier, Federal Biological Research Centre for Agriculture and Forestry (Biologische Bundesanstalt für Land and Forstwirtschaft). The respective BBCH stages are indicated in brackets for the different weed species.
as §3, §4, §5

[3] = tested on: PAPRH: Papaver rhoeas; experiment: as above; conditions: field trials
Protocol: as §1, §2, §6, §3, §4, §5

[4] = tested on: FUMOF: Fumaria officinalis; experiment: as above; conditions: HALXF 276.5 g/ha, crop TRZAW, field trials
Protocol: as §1, §2, §6, §3, §4, §5

[5] = tested on: GALAP: Galium aparine; experiment: as above; conditions: crop TRZAW, field trials
Protocol: as §1, §2, §6, §3, §4, §5

[6] = tested on: BROST: Bromus sterilis; experiment: as above; conditions: PXD 60 g/ha, BROST (25), crop TRZAW, field trials
Protocol: as §1, §2, §6, §3, §4, §5

[7] = tested on: GERDI: Geranium dissectum; experiment: as above; conditions: crop TRZAW, field trials
Protocol: as §1, §2, §6, §3, §4, §5

[8] = tested on: VERPE: Veronica persica; experiment: as above; conditions: crop TRZAW, field trials
Protocol: as §1, §2, §6, §3, §4, §5

[9] = tested on: VERHE: Veronica hederifolia; experiment: as above; conditions: PXD 60 g/ha, VERHE (71), crop TRZAW, field trials
Protocol: as §1, §2, §6, §3, §4, §5

[10] = tested on: LOLRI: Lolium rigidum; experiment: as above
Protocol: as §1, §2, §6, §3, §4, §5

[11] = tested on: TRZDU: Triticum aestivum (durum wheat); experiment: Crop damage in field trials (maximum damage observed in the crop); conditions: TCM 7.5 g/ha
Protocol: as §1, §2, §3, §4, §5

[12] = tested on: LAMAM: Lamium amplexicaule; experiment: Herbicidal action, outdoor/field trials, post-emergence; conditions: TCM 7.5 g/ha, LAMAM (32), crop TRZAW, field trials
Protocol: as §1, §2, §6, §3, §4, §5

[13] = tested on: MATIN: Matricaria inodora; experiment: as above; conditions: Tripleurospermum inodorum, TCM 7.5 g/ha, MATIN (19), crop TRZAW, field trials
Protocol: as §1, §2, §6, §3, §4, §5

[14] = tested on: VIOAR: Viola arvensis; experiment: as above; conditions: TCM 7.5 g/ha, VIOAR (15), crop TRZAW, field trials
Protocol: as §1, §2, §6, §3, §4, §5

[15] = tested on: LAMPU: Lamium purpureum; experiment: as above; conditions: TCM 7.5 g/ha, LAMPU (61), crop TRZAW, field trials
Protocol: as §1, §2, §6, §3, §4, §5

[16] = tested on: AVEST: Avena sterilis; experiment: as above; conditions: TCM 7.5 g/ha, AVEST (23), crop TRZDU, field trials
Protocol: as §1, §2, §6, §3, §4, §5

[17] = tested on: LOLMU: Lolium multiflorum; experiment: as above; conditions: TCM 7.5 g/ha, LOLMU (23), crop TRZDU, field trials
Protocol: as §1, §2, §6, §3, §4, §5

[18] = tested on: PICEC: Picris echioides; experiment: as above; conditions: Helminthotheca echioides, TCM 7.5 g/ha, PICEC (22), crop TRZDU, field trials
Protocol: as §1, §2, §6, §3, §4, §5

COc1c(Cl)ccc(-c2cc(N)c(Cl)c(C(=O)O)n2)c1F [HALXF, 4-amino-3-chloro-6-(4-chloro-2-fluoro-3-methoxyphenyl)-2-pyridinecarboxylic acid]
% Damage ([1]; HALXF 276.5 g/ha, listed as CENCY): 0% | % Damage ([1]; HALXF 276.5 g/ha, listed as FUMOF): 0% | % Damage ([1]; HALXF 276.5 g/ha, listed as GALAP): 0% | % Damage ([1]; HALXF 276.5 g/ha, listed as PAPRH): 0% | inhibition at 276.5 g/ha ([2]; HALXF 276.5 g/ha, CENCY): 45% | inhibition at 276.5 g/ha ([3]; HALXF 276.5 g/ha, PAPRH, crop TRZAW): 75% | inhibition at 276.5 g/ha [4]: 85% | inhibition at 276.5 g/ha ([5]; HALXF 276.5 g/ha, GALAP): 73%

CCc1cc(C)cc(CC)c1-c1c(OC(=O)C(C)(C)C)n2n(c1=O)CCOCC2 [PXD, 8-(2,6-diethyl-4-methylphenyl)-1,2,4,5-tetrahydro-7-oxo-7H-pyrazolo[1,2-d][1,4,5]oxadiazepin-9-yl 2,2-dimethylpropanoate]
% Damage ([1]; PXD 60 g/ha, listed as BROST (25)): 0% | % Damage ([1]; PXD 60 g/ha, listed as CENCY (38)): 15% | % Damage ([1]; PXD 60 g/ha, listed as GERDI (19)): 4% | % Damage ([1]; PXD 60 g/ha, listed as VERHE (71)): 0% | % Damage ([1]; PXD 60 g/ha, listed as VERPE (31)): 0% | inhibition at 60 g/ha [6]: 0% | inhibition at 60 g/ha ([7]; PXD 60 g/ha, GERDI (19)): 30% | inhibition at 60 g/ha ([2]; PXD 60 g/ha, CENCY (38)): 60% | inhibition at 60 g/ha ([8]; PXD 60 g/ha, VERPE (31)): 0% | inhibition at 60 g/ha [9]: 13%

COc1cc(OC)n2nc(NS(=O)(=O)c3c(C(F)(F)F)ccnc3OC)nc2n1 [PYX, N-(5,7-dimethoxy[1,2,4]triazolo[1,5-a]pyrimidin-2-yl)-2-methoxy-4-(trifluoromethyl)-3-pyridinesulfonamide]
inhibition at 17 g/ha ([10]; PYX 17 g/ha, LOLRI (10)): 20%

COC(=O)c1csc(C)c1S(=O)(=O)NC(=O)n1nc(OC)n(C)c1=O [TCM, methyl 4-[(4,5-dihydro-3-methoxy-4-methyl-5-oxo-1H-1,2,4-triazol-1-yl)carbonylsulfamoyl]-5-methylthiophene-3-carboxylate]
% Damage ([11]; listed as AVEST (23)): 0% | % Damage ([11]; listed as AVEST (23), Table 1B): 0% | % Damage ([11]; listed as LOLMU (23)): 0% | % Damage ([11]; listed as LOLMU (23), Table 1B): 0% | % Damage ([11]; listed as LOLRI (29)): 5% | % Damage ([11]; listed as LOLRI (29), Table 1B): 5% | % Damage ([11]; listed as PAPRH (15)): 0% | % Damage ([11]; listed as PAPRH (15), Table 1B): 0% | % Damage ([11]; listed as PICEC (22)): 5% | % Damage ([11]; listed as PICEC (22), Table 1B): 5% | % Damage ([1]; TCM 7.5 g/ha, listed as CENCY (19)): 0% | % Damage ([1]; TCM 7.5 g/ha, listed as CENCY (19), Table 2B): 0% | % Damage ([1]; TCM 7.5 g/ha, listed as GALAP (23)): 0% | % Damage ([1]; TCM 7.5 g/ha, listed as GALAP (23), Table 2B): 0% | % Damage ([1]; TCM 7.5 g/ha, listed as GERDI (29)): 0% | % Damage ([1]; TCM 7.5 g/ha, listed as GERDI (29), Table 2B): 0% | % Damage ([1]; TCM 7.5 g/ha, listed as LAMAM (32)): 1% | % Damage ([1]; TCM 7.5 g/ha, listed as LAMAM (32), Table 2B): 1% | % Damage ([1]; TCM 7.5 g/ha, listed as LAMPU (61)): 1% | % Damage ([1]; TCM 7.5 g/ha, listed as LAMPU (61), Table 2B): 1% | % Damage ([1]; TCM 7.5 g/ha, listed as MATIN (19)): 0% | % Damage ([1]; TCM 7.5 g/ha, listed as MATIN (19), Table 2B): 0% | % Damage ([1]; TCM 7.5 g/ha, listed as VERPE): 1% | % Damage ([1]; TCM 7.5 g/ha, listed as VERPE, Table 2B): 1% | % Damage ([1]; TCM 7.5 g/ha, listed as VIOAR (15)): 0% | % Damage ([1]; TCM 7.5 g/ha, listed as VIOAR (15), Table 2B): 0% | inhibition at 7.5 g/ha [12]: 68% | inhibition at 7.5 g/ha [13]: 20% | inhibition at 7.5 g/ha [14]: 38% | inhibition at 7.5 g/ha ([7]; TCM 7.5 g/ha, GERDI (29)): 63% | inhibition at 7.5 g/ha [15]: 70% | inhibition at 7.5 g/ha [16]: 33% | inhibition at 7.5 g/ha ([2]; TCM 7.5 g/ha, CENCY (19)): 38% | inhibition at 7.5 g/ha ([3]; TCM 7.5 g/ha, PAPRH (15), crop TRZDU): 70% | inhibition at 7.5 g/ha [17]: 43% | inhibition at 7.5 g/ha ([8]; TCM 7.5 g/ha, VERPE): 10% | inhibition at 7.5 g/ha ([10]; TCM 7.5 g/ha, LOLRI (29), crop TRZDU, field trials): 52% | inhibition at 7.5 g/ha ([5]; TCM 7.5 g/ha, GALAP (23)): 37% | inhibition at 7.5 g/ha [18]: 69%
